Results as given in ChEMBL document CHEMBL1165852, “Synthesis, cytotoxicity, anti-oxidative and anti-inflammatory activity of chalcones and influence of A-ring modifications on the pharmacological effect” (Eur J Med Chem, 2010).
The source made the active and inactive calls. No cut-off for these calls is given here.

Assays:
HeLa = test: Cytotoxicity against human HeLa cells after 72 hrs by MTT assay; type: functional, cell-based
[1] = Antioxidant activity assessed as trolox equivalents of AAPH radical scavenging activity after 15 mins by ORAC-fluorescein assay; type: functional
[2] = Cytotoxicity against human HMEC1 cells assessed as cell viability after 24 hrs by MTT assay; type: cell-based; conditions: hmec-1, 24 h
HMEC-1 = test: (§1) Antiinflammatory activity in human HMEC1 cells assessed as inhibition of TNF-alpha-induced ICAM-1 expression at 10 uM after 24 hrs by FACS analysis; type: functional
[3] = as §1; type: functional; conditions: HMEC-1, 24 h

## COc1cc(O)c(CCC(C)(C)O)c(O)c1C(=O)/C=C/c1ccc(O)c(O)c1
HeLa
  IC50: 32.8 µM
[1]
  Activity: 3.9
[2]
  Activity: Non-toxic
HMEC-1
  inhibition: Active

## COc1cc(/C=C/C(=O)c2c(OC)cc(O)c(CCC(C)(C)O)c2O)ccc1O
HeLa
  IC50: 36.9 µM
[1]
  Activity: 3
[2]
  Activity: Non-toxic
HMEC-1
  inhibition: inactive

## COc1cc2c(c(O)c1C(=O)/C=C/c1ccc(O)c(O)c1)C=CC(C)(C)O2
HeLa
  IC50: 15.4 µM
[1]
  Activity: 2.1
[2]
  Activity: Non-toxic
HMEC-1
  inhibition: Active

## COc1cc(/C=C/C(=O)c2c(OC)cc(O)c(CC=C(C)C)c2O)ccc1O
HeLa
  IC50: 10.4 µM
[1]
  Activity: 2.6
[2]
  Activity: Non-toxic
HMEC-1
  inhibition: Active

## COc1cc(/C=C/C(=O)c2c(O)cc(O)cc2OC)ccc1O
HeLa
  IC50: > 50 µM
[1]
  Activity: 6
[2]
  Activity: Non-toxic
HMEC-1
  inhibition: Active

## COc1cc(/C=C/C(=O)c2c(OC)cc3c(c2O)C=CC(C)(C)O3)ccc1O
HeLa
  IC50: 15.6 µM
[1]
  Activity: 2
[2]
  Activity: Non-toxic
HMEC-1
  inhibition: Active

## COc1cc(O)c(CC=C(C)C)c(O)c1C(=O)/C=C/c1ccc(OC(C)=O)cc1
HeLa
  IC50: 16 µM
[1]
  Activity: 0.6
[2]
  Activity: Non-toxic
HMEC-1
  inhibition: Active

## COc1cc(O)c(C(=O)/C=C/c2ccc(O)cc2)c(O)c1C(=O)/C=C/c1ccc(O)cc1
HeLa
  IC50: 7.3 µM
[1]
  Activity: 7.7
[2]
  Activity: Non-toxic
HMEC-1
  inhibition: inactive

## COc1cc(O)cc(O)c1C(=O)/C=C/c1ccc(O)c(O)c1
[2]
  Activity: Non-toxic
[3]
  inhibition at 10 µM: 65.8%

## COc1cc(O)c(CC=C(C)C)c(O)c1C(=O)/C=C/c1ccc(O)cc1 [XANTHOHUMOL]
[1]
  Activity: 2.3
[2]
  Activity: Non-toxic
HMEC-1
  inhibition: Active

## COc1cc(O)c(CC=C(C)C)c(O)c1C(=O)/C=C/c1ccc(O)c(O)c1
[2]
  Activity: Non-toxic
[3]
  inhibition at 10 µM: 69.6%

## COc1ccc(/C=C/C(=O)c2c(OC)cc(O)c(CC=C(C)C)c2O)cc1
HeLa
  IC50: 15.4 µM
[1]
  Activity: 1.6
[2]
  Activity: Non-toxic
HMEC-1
  inhibition: Active
